Measurements published in US9140688B2, “Sperm staining and sorting methods” (INGURAN, LLC, priority 2011, dated 2015).

Legend:
[1] = system: membrane compromised bovine sperm stained with Hoechst 33342; experiment: Dead quenching: dead gate intensity divided by live gate intensity, flow cytometry of stained bovine sperm; assay type: cell-based; conditions: for Dead Intensity (dead gate intensity divided by live gate intensity): Ex 5
Excerpt: FIG. 4 illustrates an example bivariate plot and univariate histogram of the parameters measured during sex selection by a FACS on a flow cytometer. […] Without a dead quenching dye, both populations of sperm would overlap to a large extent, with unpredictable variations in the dead sperm.
The entire ejaculate of sperm was suspended in first staining buffer, specifically a 7.4 pH TALP described in TABLE 1, to a concentration of 160×10^6 sperm per mL (determined on nucleocounter) and divided into three aliquots of about 20 mL into 50 mL Falcon tubes and pre-warmed for 10 minutes at 34° C. The DNA selective fluorescent dye, Hoechst 33342, was added and samples were held at 34° C. for 60 minutes. 3 different Hoechst 33342 Stain Levels were used=12 μL, 14 μL and 16 μL per 2 mL (effective concentrations of 48 μM, 56 μM, 64 μM).
Preparation of the second buffer including the dead quenching dye—A 2 L bag of TALP, described in TABLE 1, was adjusted to pH 5.60 using HCl and then sterile filtered. […] For each of the four dyes tested (R40—red food dye No. 40, Y5—yellow food dye No. 5, Y6—yellow food dye No. 6 and PR—phenol red), an appropriate number of milligrams of each powder was placed in a Erlenmeyer Flask and then an exact amount of TALP pH 5.60 was added to create a […] concentration of the dye. The result was a working TALP stock for each dye with a 100% (125 μM) relative amount of dye 50% relative (62.5 μM) and 20% relative (25 μM) solutions were made by dilution of 100% by TALP pH 5.60.
After this “bulk” staining for 60 minutes, 1 mL aliquots of stained sperm were combined with 1 mL aliquots of the second buffer including the dead quenching dyes. Samples sat for approximately 30 minutes at room temperature before being analyzed on a MoFlo SX (Beckman Coulter, USA) sperm sorting flow cytometer. Event rates were held as close to 13,000 as possible at the point of data acquisition.
The total number of individual treatments was 42 tubes, each containing 2 mL of stained sample. The alignment of the sorter was established using nuclei and confirmed with live sample from the 50% Red 40 series. Once good alignment was established, each tube was placed on the sorter long enough to establish a stabile dead gate population (about 30 seconds) and then a screenshot was taken and saved as a .jpeg image. This approach of rapidly documenting each sample is used to assure the most consistent alignment between all samples. Realignment of sorter will not cause differences in the intensities of live and dead gate populations but will cause differences in split quality.
FIG. 4 illustrates an example histogram. The ratio of dead gate intensity divided by live gate intensity is created by dividing the distance “A” by the distance “B” shown as a percentage. Lower values mean higher levels of quenching. The ratio of peak height divided by valley height is created by dividing the distance “C” by the distance “D”. A value of 1.00 means “no split” while higher values mean “better splits”. […]

[2] = solvent water; shorter-wavelength local maximum; cited from earlier work
[3] = system: X- and Y-chromosome bearing bovine sperm stained with Hoechst 33342; experiment: Split quality: height of peak divided by height of valley (PV), flow cytometry of stained bovine sperm; assay type: cell-based; conditions: for Height of Peak/Height of Valley: Ex 5; for Height of Peak Divided by Height of Valley: Ex 7, Yellow 6 62 μM, Phenol Red 0 μM
[4] = dye 62.5 μM, Hoechst 12 μL/2 mL
[5] = dye 62.5 μM, Hoechst 14 μL/2 mL
[6] = dye 62.5 μM, Hoechst 16 μL/2 mL
[7] = Ex 6, dye 62.5 μM, resulting pH 6.70, Hoechst 48 μM

SMILES: O=S(=O)([O-])c1ccc(N=Nc2c(O)ccc3cc(S(=O)(=O)[O-])ccc23)cc1.[Na+].[Na+] [Yellow 6, Disodium 6-hydroxy-5-[(4-sulfophenyl)azo]-2-naphthalenesulfononate]
- Dead Intensity (dead gate intensity divided by live gate intensity) ([1]; dye 25 μM, Average of Hoechst levels): 71%
- Dead Intensity (dead gate intensity divided by live gate intensity) ([1]; dye 25 μM, Hoechst 12 μL/2 mL): 68%
- Dead Intensity (dead gate intensity divided by live gate intensity) ([1]; dye 25 μM, Hoechst 14 μL/2 mL): 74%
- Dead Intensity (dead gate intensity divided by live gate intensity) ([1]; dye 25 μM, Hoechst 16 μL/2 mL): 70%
- Dead Intensity (dead gate intensity divided by live gate intensity) ([1]; dye 62.5 μM, Average of Hoechst levels): 51%
- Dead Intensity (dead gate intensity divided by live gate intensity) [1, 4]: 50%
- Dead Intensity (dead gate intensity divided by live gate intensity) [1, 5]: 52%
- Dead Intensity (dead gate intensity divided by live gate intensity) [1, 6]: 52%
- Dead Intensity (dead gate intensity divided by live gate intensity) ([1]; dye 125 μM, Average of Hoechst levels): 39%
- Dead Intensity (dead gate intensity divided by live gate intensity) ([1]; dye 125 μM, Hoechst 12 μL/2 mL): 37%
- Dead Intensity (dead gate intensity divided by live gate intensity) ([1]; dye 125 μM, Hoechst 14 μL/2 mL): 40%
- Dead Intensity (dead gate intensity divided by live gate intensity) ([1]; dye 125 μM, Hoechst 16 μL/2 mL): 40%
- Intensity (dead gate) [1, 7]: 50%
- quenching of the dead population compared to red food dye No. 40 (FIG. 3) ([1]; three bulls, equal amounts of Hoechst 33342 and of dye): superior quenching
- Expected Absorption Maxima [2]: 480 nm
- Height of Peak/Height of Valley ([3]; dye 25 μM, Average of 12 and 14 μL series): 2.06
- Height of Peak/Height of Valley ([3]; dye 25 μM, Hoechst 12 μL/2 mL): 2.05
- Height of Peak/Height of Valley ([3]; dye 25 μM, Hoechst 14 μL/2 mL): 2.07
- Height of Peak/Height of Valley ([3]; dye 25 μM, Hoechst 16 μL/2 mL): 1.13
- Height of Peak/Height of Valley ([3]; dye 62.5 μM, Average of 12 and 14 μL series): 1.66
- Height of Peak/Height of Valley [3, 4]: 1.70
- Height of Peak/Height of Valley [3, 5]: 1.62
- Height of Peak/Height of Valley [3, 6]: 1.00
- Height of Peak/Height of Valley ([3]; dye 125 μM, Average of 12 and 14 μL series): 1.77
- Height of Peak/Height of Valley ([3]; dye 125 μM, Hoechst 12 μL/2 mL): 1.73
- Height of Peak/Height of Valley ([3]; dye 125 μM, Hoechst 14 μL/2 mL): 1.80
- Height of Peak/Height of Valley ([3]; dye 125 μM, Hoechst 16 μL/2 mL): 1.26
- PV [3, 7]: 1.00
- Height of Peak Divided by Height of Valley ([3]; cells 100 million per mL): 1.26
- Height of Peak Divided by Height of Valley ([3]; cells 150 million per mL): 1.30
- Height of Peak Divided by Height of Valley ([3]; cells 250 million per mL): 1.25
- Height of Peak Divided by Height of Valley ([3]; cells 300 million per mL): 1.23
- PV ([3]; Ex 8, Bull 1, Hoechst 44 μM, Y6 50 μM alone): 1.20
- PV ([3]; Ex 8, Bull 1, Hoechst 60 μM, Y6 50 μM alone): 1.39
- PV ([3]; Ex 8, Bull 2, Hoechst 28 μM, Y6 50 μM alone): 1.64
- PV ([3]; Ex 8, Bull 2, Hoechst 44 μM, Y6 50 μM alone): 1.35
- PV ([3]; Ex 8, Bull 2, Hoechst 60 μM, Y6 50 μM alone): 1.35
- PV ([3]; Ex 8, Bull 2, Hoechst 60 μM, Y6 375 μM alone): 1.72
- PV ([3]; Ex 9, Bull 3, Hoechst 60 μM, Y6 50 μM, R3 0 μM, first Y6 series): 1.26
- PV ([3]; Ex 9, Bull 3, Hoechst 60 μM, Y6 50 μM, R3 0 μM, second Y6 series): 1.32
